ChEMBL document CHEMBL3046075, “Synthesis and antibacterial activity of novel 7-haloanilino-8-nitrofluoroquinolone derivatives” (2012)
≈ marks a conversion by molar mass, not a printed value.

Columns and labels:
Staphylococcus aureus [1] = assay: Antibacterial activity against resistant isolates of Staphylococcus aureus after 24 hr by two-fold serial dilution method; type: functional
Staphylococcus aureus [2] = assay: Antibacterial activity against Staphylococcus aureus ATCC 6538 after 24 hr by two-fold serial dilution method; type: functional; conditions: ATCC 6538, 24 h

SMILES | MIC (Staphylococcus aureus [1]) [µg/mL] | MIC (Staphylococcus aureus [2]) [µg/mL]
O=C(O)c1cn(C2CC2)c2c([N+](=O)[O-])c(Nc3cccc(Cl)c3)c(F)cc2c1=O | 7 (≈ 16.8 µM) | 0.9 (≈ 2.15 µM)
O=C(O)c1cn(C2CC2)c2cc(N3CCNCC3)c(F)cc2c1=O [CIPROFLOXACIN] | 1.4 (≈ 4.23 µM) | 2.9 (≈ 8.75 µM)
O=C(O)c1cn(C2CC2)c2c([N+](=O)[O-])c(Nc3ccc(Cl)cc3)c(F)cc2c1=O | 9.8 (≈ 23.5 µM) | 6.7 (≈ 16 µM)
O=C(O)c1cn(C2CC2)c2c([N+](=O)[O-])c(Nc3ccccc3Cl)c(F)cc2c1=O | 6.7 (≈ 16 µM) | 6.7 (≈ 16 µM)
O=C(O)c1cn(C2CC2)c2c([N+](=O)[O-])c(Nc3ccc(F)c(F)c3F)c(F)cc2c1=O | 9.8 (≈ 22.4 µM) | 39 (≈ 89.2 µM)
O=C(O)c1cn(C2CC2)c2c([N+](=O)[O-])c(Nc3ccccc3)c(F)cc2c1=O | – | 11.7 (≈ 30.5 µM)
O=C(O)c1cn(C2CC2)c2c([N+](=O)[O-])c(Nc3ccccc3F)c(F)cc2c1=O | 106 (≈ 264 µM) | 106 (≈ 264 µM)
